The values below come from ChEMBL document CHEMBL1201862, “PubChem BioAssay data set” (2004).

For series [1], the target named is T1, Apoptotic protease-activating factor 1 (Homo sapiens, UniProt O14727).
T1 sequence (O14727 whole entry): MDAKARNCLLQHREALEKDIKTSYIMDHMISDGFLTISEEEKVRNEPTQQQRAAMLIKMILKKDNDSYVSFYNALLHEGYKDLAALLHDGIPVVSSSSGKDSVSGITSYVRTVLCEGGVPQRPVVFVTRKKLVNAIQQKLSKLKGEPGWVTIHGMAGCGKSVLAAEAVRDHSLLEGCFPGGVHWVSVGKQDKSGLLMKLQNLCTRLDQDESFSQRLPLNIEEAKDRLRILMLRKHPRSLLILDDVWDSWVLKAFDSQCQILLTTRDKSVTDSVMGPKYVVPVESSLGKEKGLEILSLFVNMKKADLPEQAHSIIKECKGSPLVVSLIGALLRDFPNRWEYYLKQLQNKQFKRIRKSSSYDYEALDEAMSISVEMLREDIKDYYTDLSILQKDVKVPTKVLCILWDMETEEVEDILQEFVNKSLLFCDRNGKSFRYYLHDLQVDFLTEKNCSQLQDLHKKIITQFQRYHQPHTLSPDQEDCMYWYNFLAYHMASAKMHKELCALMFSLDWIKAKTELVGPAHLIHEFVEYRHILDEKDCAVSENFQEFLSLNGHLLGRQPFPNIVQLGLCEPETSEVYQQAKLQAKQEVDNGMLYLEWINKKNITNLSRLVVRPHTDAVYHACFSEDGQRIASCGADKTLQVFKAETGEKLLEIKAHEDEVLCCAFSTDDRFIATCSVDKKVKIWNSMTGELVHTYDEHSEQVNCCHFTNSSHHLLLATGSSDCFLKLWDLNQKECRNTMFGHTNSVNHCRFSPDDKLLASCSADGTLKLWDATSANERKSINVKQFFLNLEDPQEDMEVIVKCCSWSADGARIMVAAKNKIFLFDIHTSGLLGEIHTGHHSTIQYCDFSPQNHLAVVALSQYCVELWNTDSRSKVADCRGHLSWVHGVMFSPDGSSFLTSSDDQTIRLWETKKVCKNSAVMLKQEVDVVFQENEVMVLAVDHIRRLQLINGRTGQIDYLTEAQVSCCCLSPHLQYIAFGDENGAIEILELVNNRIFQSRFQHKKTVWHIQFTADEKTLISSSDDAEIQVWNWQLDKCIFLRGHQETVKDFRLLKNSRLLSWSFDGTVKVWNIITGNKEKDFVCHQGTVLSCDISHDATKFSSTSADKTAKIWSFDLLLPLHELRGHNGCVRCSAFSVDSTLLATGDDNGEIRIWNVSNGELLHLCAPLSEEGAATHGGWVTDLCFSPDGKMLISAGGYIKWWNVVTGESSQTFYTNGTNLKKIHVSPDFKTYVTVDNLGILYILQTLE
Briefly: activation of Apaf-1 mediated apoptosis – fluorescent, uHTS hits, dose response (AID 588554). Format: functional.

Series [2] has as its target T2, Small ubiquitin-related modifier 1 (Homo sapiens, UniProt P63165). The series is described as follows: inhibitors of SUMO1 partner interactions, dose response, biochemical, FRET (AID 624383). Format: functional. Conditions: read-out: IC50_Mean.
The target of series [3] is T2, Small ubiquitin-related modifier 1. Briefly: inhibitors of SUMO1 peptide binding, dose response, biochemical, fluorescence polarization, uHTS hits (AID 624382). The class given is functional. As to conditions: read-out: IC50_Mean. On the technique in general: In fluorescence polarisation assays a small probe gives low polarisation when free and higher when bound to something large.

Series [4] addresses T3, Voltage-gated N-type calcium channel alpha-1B subunit/Amyloid beta A4 precursor protein-binding family A member 1 (Homo sapiens, UniProt Q00975+Q02410). The class given is protein assay.
Series [5] addresses T3, Voltage-gated N-type calcium channel alpha-1B subunit/Amyloid beta A4 precursor protein-binding family A member 1. The class given is protein assay. This is another data set of the same source.
In series [6] the target is Cytochrome P450 2D6 (Homo sapiens, UniProt P10635).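 Further: CYP2D6 member of a cytochrome P450 panel assay.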
Series [7] concerns the target T4, Cytochrome P450 1A2 (Homo sapiens, UniProt P05177).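 Further: PubChem cytochrome P450 panel assay, CYP1A2 panel member.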
T4 sequence (P05177 whole entry): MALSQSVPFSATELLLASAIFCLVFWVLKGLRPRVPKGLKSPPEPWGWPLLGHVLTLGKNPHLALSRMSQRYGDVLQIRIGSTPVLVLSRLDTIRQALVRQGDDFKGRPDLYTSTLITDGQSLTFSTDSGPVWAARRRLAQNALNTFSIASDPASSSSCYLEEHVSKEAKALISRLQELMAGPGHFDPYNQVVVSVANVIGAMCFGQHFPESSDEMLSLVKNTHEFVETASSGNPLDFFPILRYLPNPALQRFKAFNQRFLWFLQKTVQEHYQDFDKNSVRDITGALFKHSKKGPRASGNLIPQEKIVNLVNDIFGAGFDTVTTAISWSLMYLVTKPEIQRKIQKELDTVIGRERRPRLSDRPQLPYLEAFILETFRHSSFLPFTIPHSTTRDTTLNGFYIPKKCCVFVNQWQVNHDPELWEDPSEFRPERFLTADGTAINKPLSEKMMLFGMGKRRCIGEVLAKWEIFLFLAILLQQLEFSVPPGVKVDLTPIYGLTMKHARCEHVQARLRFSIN

In series [8] the target is UDP-galactopyranose mutase (Mycobacterium tuberculosis, UniProt P9WIQ1). The series is described as follows: Inhibitors of Mycobacterium tuberculosis UDP-galactopyranose mutase (UGM) enzyme Measured in Biochemical System Using Plate Reader - 2105-02_Inhibitor_Dose_CherryPick_Activity. [Related pubchem assays (depositor defined):AID504439].
The target in series [9] is T5, Probable nicotinate-nucleotide adenylyltransferase (Staphylococcus aureus (strain N315), UniProt P65502). The class given is functional, Staphylococcus aureus subsp. aureus N315.
T5 sequence (P65502 whole entry): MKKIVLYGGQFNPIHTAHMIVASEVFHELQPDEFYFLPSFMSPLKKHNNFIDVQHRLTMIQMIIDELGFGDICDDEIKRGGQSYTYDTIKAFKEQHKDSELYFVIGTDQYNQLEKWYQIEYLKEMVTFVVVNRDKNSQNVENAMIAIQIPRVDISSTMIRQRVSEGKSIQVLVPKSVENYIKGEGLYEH
The target in series [10] is Protein-tyrosine kinase 2-beta (Homo sapiens, UniProt Q14289).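 Further: potency of inhibitors of PYK2 kinase phosphorylation of poly-GT substrate.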
Series [11] deals with T5, Probable nicotinate-nucleotide adenylyltransferase. The class given is functional, Staphylococcus aureus subsp. aureus N315. Conditions: read-out: IC50_Mean.
In series [12] the target is Albumin (Bos taurus, UniProt P02769). Briefly: Counterscreen for inhibitors of T-cell receptor (TCR)-CD3 interaction: Fluorescence-based biochemical high throughput dose response assay to identify inhibitors of T-cell receptor (TCR)-CD3 interaction using a TAMRA-labeled BSA probe. The class given is functional.
Series [13] deals with Protein Rev (Human immunodeficiency virus type 1 group M subtype B (isolate WMJ22)(HIV-1), UniProt P05866). The series is described as follows: HIV-1 Rev-RRE RNA binding disruptors, dose response, biochemical, protein-RNA interaction (AID 842). Also on record: species or system Human immunodeficiency virus 1.
Sequence of Protein Rev (P05866 whole entry): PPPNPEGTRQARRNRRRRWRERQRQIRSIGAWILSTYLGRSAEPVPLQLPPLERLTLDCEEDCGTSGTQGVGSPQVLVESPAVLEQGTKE
Series [14] has as its target T6, SUMO-activating enzyme (Homo sapiens, UniProt Q9UBT2). Briefly: inhibitors of in vitro SUMOylation cascade, primary screen, biochemical, HTRF, uHTS (AID 2006). Format: protein-complex assay.
In series [15] the target is DNA (cytosine-5)-methyltransferase 1 (Homo sapiens, UniProt P26358). Briefly: DNMT1 methyltransferase inhibitors, confirmation, biochemical, fluorescent molecular beacon (AID 602386). The class given is functional.
Series [16] deals with Genome polyprotein (Hepatitis C virus, UniProt Q2Q167). The series is described as follows: HCV core protein dimerization inhibitors, dose response, biochemical, TR-FRET (AID 2159).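 Further: blocks dimerization of HCV core protein measured by TR-FRET between tagged core106 pairs.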 Set-up: species or system Hepacivirus hominis. (In general: Time-resolved FRET reads energy transfer from a long-lived donor to a nearby acceptor.)
Sequence of Genome polyprotein (Q2Q167 whole entry): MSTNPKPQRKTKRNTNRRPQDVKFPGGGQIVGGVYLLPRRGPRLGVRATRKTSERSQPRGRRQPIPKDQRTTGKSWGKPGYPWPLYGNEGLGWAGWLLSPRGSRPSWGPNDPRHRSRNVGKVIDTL
Series [17] addresses T7, Rac GTPase-activating protein 1 (Homo sapiens, UniProt Q9H0H5).
T7 sequence (Q9H0H5 whole entry): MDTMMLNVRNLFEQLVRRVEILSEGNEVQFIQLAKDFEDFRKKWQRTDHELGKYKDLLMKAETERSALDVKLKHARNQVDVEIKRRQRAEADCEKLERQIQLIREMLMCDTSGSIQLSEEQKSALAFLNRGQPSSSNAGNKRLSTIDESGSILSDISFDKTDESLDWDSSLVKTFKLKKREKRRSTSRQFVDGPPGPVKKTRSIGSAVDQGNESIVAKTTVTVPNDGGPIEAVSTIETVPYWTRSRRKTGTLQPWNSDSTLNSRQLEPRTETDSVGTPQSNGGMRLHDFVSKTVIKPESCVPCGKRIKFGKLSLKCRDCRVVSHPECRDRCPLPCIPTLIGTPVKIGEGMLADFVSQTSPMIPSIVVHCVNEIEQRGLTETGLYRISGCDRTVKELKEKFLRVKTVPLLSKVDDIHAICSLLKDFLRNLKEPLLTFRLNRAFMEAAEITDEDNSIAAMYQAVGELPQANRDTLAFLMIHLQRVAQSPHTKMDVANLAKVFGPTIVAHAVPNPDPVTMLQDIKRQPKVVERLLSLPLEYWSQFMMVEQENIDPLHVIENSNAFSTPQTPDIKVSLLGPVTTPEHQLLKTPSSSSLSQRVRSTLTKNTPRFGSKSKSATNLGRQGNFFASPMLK
Briefly: MgcRacGAP GTPase-activating activity inhibitors, confirmation, biochemical, ADP Hunter fluorescence, primary and confirmatory (AID 624330). The class given is functional.

In series [18] the target is T6, SUMO-activating enzyme. Briefly: SUMOylation inhibitor hit validation, confirmation, SUMOylation inhibitor project, biochemical, AlphaScreen (AID 2018). The class given is functional. A general note: In Alpha technology, singlet oxygen from a donor bead excites a nearby acceptor bead.
The target of series [19] is T8, Bcl-2-like protein 10 (Homo sapiens, UniProt Q9HD36).
T8 sequence (Q9HD36 whole entry): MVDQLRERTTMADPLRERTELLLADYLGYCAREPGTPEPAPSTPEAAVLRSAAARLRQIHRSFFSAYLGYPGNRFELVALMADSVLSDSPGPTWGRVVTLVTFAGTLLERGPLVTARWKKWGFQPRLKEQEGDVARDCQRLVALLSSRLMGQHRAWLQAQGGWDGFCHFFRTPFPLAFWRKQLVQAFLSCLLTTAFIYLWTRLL
Briefly: displacers of TR3 peptide from Bcl-B, primary screen, selectivity assay for Bfl-1 inhibitor project, biochemical, fluorescence polarization, FITC-TR3 peptide (AID 748).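 Further: fluorescence polarization from a fluorescein-labelled TR3 peptide binding purified Bcl-B.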

The target in series [20] is SUMO E1/E2 (Homo sapiens, UniProt P63279+Q9UBE0+Q9UBT2). The series is described as follows: SAR analysis of SUMOylation using HTRF in an in-Vitro dose response assay. [Related pubchem assays (depositor defined):AID2006, AID2011, AID2018, AID2069, AID2658]. The class given is functional.
Sequence of SUMO E1/E2 (Q9UBE0 whole entry): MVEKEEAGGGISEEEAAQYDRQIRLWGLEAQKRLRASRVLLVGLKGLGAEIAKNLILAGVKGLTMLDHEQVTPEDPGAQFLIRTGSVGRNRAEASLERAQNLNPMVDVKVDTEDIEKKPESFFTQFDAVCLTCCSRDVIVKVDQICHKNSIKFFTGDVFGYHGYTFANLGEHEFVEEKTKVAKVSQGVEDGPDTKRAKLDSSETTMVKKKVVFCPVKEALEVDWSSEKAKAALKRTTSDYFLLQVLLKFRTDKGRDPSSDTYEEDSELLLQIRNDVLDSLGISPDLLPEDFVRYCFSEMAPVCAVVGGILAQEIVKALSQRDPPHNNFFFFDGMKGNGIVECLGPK
Sequence of SUMO E1/E2 (Q9UBT2 whole entry): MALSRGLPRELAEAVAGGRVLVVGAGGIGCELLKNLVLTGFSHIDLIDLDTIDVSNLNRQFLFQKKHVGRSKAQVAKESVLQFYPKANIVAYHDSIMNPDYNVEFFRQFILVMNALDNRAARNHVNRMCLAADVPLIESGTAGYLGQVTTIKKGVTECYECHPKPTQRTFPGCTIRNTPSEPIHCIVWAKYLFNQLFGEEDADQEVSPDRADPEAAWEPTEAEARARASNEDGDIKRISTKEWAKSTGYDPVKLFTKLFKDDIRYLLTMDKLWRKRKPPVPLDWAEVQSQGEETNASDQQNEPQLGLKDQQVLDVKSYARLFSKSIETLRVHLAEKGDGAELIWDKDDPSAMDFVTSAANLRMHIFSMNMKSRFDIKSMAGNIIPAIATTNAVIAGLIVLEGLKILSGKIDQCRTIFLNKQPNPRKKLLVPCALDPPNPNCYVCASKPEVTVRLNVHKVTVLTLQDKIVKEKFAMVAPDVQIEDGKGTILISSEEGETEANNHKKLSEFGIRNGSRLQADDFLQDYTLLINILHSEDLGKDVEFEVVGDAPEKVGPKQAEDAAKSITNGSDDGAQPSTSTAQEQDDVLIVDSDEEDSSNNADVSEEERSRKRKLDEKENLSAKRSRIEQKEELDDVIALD
Sequence of SUMO E1/E2 (P63279 whole entry): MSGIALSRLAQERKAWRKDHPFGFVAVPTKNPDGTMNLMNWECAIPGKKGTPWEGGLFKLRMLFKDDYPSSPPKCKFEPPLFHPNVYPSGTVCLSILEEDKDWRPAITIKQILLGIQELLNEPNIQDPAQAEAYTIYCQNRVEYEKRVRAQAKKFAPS
For series [21], the target named is T3, Voltage-gated N-type calcium channel alpha-1B subunit/Amyloid beta A4 precursor protein-binding family A member 1. The series is described as follows: disruptors of Mint-PDZ/N-type channel peptide interaction – biochemical, HTRF, SAR follow-up (AID 2489). Format: functional.
Series [22] shares this target. Briefly: disruptors of Mint-PDZ/N-type channel peptide interaction – biochemical, HTRF, set 2, SAR follow-up (AID 434980). Format: functional.
Series [23] deals with Candida albicans. The series is described as follows: growth inhibition of resistant C. albicans, dose response, CaCi-8, fluconazole, Alamar Blue, dry powder (AID 488807). Format: functional, organism-based.

Several values for one entry are separate records, joined by “and”; a condition that tells them apart may be missing. Identical values can stand only once. Activity calls are given as the source filed them.

For orientation: EC50 means the concentration needed to bring the measured effect to its halfway point. One may read the AC50 as the midpoint of the concentration-response curve, whichever way the signal moves.

T3 sequence (Q00975 whole entry): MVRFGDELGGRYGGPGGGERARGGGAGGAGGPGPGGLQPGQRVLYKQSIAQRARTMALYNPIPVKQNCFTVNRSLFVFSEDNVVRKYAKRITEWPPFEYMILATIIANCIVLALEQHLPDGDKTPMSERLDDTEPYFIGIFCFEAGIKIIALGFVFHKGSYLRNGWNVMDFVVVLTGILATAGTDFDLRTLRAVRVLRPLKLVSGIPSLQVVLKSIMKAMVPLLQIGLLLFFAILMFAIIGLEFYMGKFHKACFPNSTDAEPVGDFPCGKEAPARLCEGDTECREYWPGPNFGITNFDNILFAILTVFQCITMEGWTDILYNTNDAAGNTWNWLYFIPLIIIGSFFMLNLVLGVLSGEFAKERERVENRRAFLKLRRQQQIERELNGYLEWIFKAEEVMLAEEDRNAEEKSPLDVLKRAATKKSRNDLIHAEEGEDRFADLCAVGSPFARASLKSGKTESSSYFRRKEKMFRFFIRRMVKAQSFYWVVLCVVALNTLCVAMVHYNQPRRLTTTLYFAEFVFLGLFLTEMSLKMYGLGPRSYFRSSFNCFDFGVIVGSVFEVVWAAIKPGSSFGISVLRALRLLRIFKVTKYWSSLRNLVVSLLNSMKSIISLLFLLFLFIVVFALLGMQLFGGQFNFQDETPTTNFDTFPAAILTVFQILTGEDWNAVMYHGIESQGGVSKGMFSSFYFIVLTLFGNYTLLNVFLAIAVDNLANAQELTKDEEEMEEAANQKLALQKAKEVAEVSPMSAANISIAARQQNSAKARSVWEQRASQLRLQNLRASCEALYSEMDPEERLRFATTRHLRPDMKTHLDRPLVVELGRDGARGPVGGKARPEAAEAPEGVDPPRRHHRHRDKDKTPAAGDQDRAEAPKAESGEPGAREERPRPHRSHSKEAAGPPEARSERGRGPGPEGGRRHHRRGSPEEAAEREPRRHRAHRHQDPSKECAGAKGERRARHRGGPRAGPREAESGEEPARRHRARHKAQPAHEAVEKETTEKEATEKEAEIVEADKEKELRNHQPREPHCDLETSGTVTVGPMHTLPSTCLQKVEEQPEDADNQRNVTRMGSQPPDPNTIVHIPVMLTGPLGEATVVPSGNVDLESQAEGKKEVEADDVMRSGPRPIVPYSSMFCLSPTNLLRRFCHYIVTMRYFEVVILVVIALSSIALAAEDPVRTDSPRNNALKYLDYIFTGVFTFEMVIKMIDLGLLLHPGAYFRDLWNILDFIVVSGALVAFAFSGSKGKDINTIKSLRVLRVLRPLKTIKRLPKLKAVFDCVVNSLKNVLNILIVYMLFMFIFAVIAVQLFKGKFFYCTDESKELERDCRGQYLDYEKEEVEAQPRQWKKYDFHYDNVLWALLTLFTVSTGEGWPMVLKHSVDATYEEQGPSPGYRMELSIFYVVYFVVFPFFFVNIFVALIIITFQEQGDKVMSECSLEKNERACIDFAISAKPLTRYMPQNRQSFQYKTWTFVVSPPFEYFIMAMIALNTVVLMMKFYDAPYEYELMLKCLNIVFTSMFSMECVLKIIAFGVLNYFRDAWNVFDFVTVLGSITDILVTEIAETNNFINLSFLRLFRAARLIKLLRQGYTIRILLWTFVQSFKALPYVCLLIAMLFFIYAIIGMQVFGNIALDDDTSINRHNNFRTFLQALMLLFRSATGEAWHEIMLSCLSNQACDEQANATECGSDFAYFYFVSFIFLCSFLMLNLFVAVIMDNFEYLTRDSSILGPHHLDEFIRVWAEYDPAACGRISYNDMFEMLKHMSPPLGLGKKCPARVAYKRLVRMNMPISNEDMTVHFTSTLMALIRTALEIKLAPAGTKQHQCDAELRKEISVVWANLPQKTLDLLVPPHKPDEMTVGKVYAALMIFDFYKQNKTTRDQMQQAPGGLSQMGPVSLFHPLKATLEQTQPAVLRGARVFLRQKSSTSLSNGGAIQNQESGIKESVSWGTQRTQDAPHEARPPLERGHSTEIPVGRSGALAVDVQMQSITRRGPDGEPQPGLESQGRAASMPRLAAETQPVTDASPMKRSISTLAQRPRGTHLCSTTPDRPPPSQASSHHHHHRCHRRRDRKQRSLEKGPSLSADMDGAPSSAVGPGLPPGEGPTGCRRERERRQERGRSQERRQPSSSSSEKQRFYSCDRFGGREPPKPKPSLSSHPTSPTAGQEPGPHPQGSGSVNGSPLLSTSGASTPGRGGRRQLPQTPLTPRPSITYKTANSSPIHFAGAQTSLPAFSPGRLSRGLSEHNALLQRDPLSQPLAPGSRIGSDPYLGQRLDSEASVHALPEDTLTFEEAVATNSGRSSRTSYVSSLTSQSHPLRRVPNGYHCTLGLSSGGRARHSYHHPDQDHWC
T3 sequence (Q02410 whole entry): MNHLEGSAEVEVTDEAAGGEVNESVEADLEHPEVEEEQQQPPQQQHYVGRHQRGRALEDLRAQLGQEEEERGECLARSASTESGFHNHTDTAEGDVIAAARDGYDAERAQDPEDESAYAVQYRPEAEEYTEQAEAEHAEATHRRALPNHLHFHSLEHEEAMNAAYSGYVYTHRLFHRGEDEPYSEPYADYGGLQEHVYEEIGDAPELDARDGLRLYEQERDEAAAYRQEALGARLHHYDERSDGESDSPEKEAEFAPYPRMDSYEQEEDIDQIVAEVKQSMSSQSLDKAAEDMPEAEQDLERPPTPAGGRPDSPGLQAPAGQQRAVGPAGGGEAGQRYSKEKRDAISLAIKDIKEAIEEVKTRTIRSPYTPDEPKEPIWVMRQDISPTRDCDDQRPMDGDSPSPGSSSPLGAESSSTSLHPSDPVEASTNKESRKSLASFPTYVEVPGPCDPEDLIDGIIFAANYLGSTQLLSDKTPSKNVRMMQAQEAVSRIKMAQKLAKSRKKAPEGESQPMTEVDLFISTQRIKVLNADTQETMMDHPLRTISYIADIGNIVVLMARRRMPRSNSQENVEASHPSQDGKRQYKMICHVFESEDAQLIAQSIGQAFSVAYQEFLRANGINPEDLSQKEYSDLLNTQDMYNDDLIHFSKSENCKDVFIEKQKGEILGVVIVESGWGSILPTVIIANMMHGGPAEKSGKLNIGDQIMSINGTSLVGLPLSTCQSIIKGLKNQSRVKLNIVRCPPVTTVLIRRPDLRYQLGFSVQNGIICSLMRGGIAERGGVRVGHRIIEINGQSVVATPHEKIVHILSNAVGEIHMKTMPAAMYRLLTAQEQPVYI
T2 sequence (P63165 whole entry): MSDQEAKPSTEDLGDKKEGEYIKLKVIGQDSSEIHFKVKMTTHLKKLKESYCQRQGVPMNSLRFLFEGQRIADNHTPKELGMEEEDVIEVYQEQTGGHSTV
T6 sequence (Q9UBE0 whole entry): as the sequence (Q9UBE0 whole entry) above
T6 sequence (Q9UBT2 whole entry): as the sequence (Q9UBT2 whole entry) above

Consider `N#Cc1nc(-c2ccc(OCc3ccc(Cl)cc3)cc2)oc1N1CCC(C(N)=O)CC1`, for which the EC50 in [1] is 7.04 µM (active). Further, the IC50 in [2] was 8.79 µM (active); in series [3], > 66.6 µM (inactive); in series [4] it was 47.3 µM (active); in series [5], 3.78 µM (active).

In the case of `Cn1c(=O)c2nc(SCc3ccccn3)[nH]c2n(C)c1=S`, the results for the AC50 entry in series [6] and in series [7] were “inconclusive” and 0.0126 µM (inconclusive), respectively.

For `CC(C)(C)c1cc[n+](-c2[n-]c(=O)sc2C=NN=C(S)Nc2ccccc2)cc1`, the AC50 in series [8] was 65.5 µM (active).

With `O=C(N/N=C/c1ccc(F)cc1)c1cc(-c2ccco2)nc2ccccc12`, the IC50 in series [9] was 10.8 µM (active); in series [10] it was 2.01 µM (active); in series [11], 27.1 µM (active); in [12], > 94.1 µM (inactive); in series [13], > 79.4 µM (not active); in series [14], 10.6 µM (active). Further, the IC50 in series [15] was 5.57 µM (active); in series [4], 6.44 µM (active); in [16], > 49.8 µM (not active); in series [17] it was 108 µM (active); in [18], 2.28 µM (active); in series [19] it was 2.97 µM (active). Further, the IC50 is 4.33 µM (active) and 8.06 µM (active) in series [20]; 8.83 µM (active) in [5]; 14.6 µM (active) in [21]; 5.57 µM (active) in [22].

As for `COC(=O)Cn1nc(-c2ccc(Cl)cc2)c2ccccc21`, in [23], the concentration at half-maximal activity (AC50) is 2.16 µM (active).
